Like-named read-outs stand apart in the source and are kept apart here.
How the values were obtained:
Type in all cases: in vivo
[1] = test system: insecticide-susceptible Drosophila melanogaster (Canton-S strain); details: for Slope ± Std. Error (best-fit probit mortality line): Table 1, 24 hr exposure, probit analysis; for Slope ± Std. Error (best-fit probit mortality line) / Slope ± Std. Error (probit mortality line): Canton-S; for Slope ± Std. Error (probit mortality line): 24 hr
Experimental: The insecticide-susceptible Canton-S strain of Drosophila was obtained from the Bloomington Drosophila stock center (Indiana University, Bloomington, Ind.), and used exclusively in all studies. Flies were reared in 100-ml vials capped with acetate plugs (Fisher Scientific; Suwannee, Ga.) on a JAZZ-MIX diet (Fisher) prepared with a 2:1 ratio of water to apple juice. Flies were reared on a 12:12 photocycle at 24° C. and ambient relative humidity. Mixed-sex adults, less than 1-wk old, were used in bioassays.
Flies were briefly anesthetized in rearing vials with a pulse of CO2 and transferred to a CO2 flowbed (Genesee Scientific; San Diego, Calif.). Using a camel hair brush and a 5×5 cm sheet of rice paper, ten flies were placed into 7.0 ml dram vials. Prior to adding flies, each vial received a 0.5 cm^3 block of rearing diet that had been sufficiently dried on a paper towel to remove excessive moisture. The vials were then capped with open-top septum caps (Fisher) that were covered with fine mesh. The mesh was applied to the septum caps in advance using hot glue; it prevented fly escape but readily permitted gas exchange. The flies were allowed 1-hr to recover from the CO2 anesthesia. After one hour, single vials with flies were placed into 0.5 L glass jars, along with a filter paper tent (see FIG. 1). In a fume hood, filter paper tents were treated with insecticide dilutions or acetone for controls. The jars were then rapidly closed tightly with a metal lid. After 24 hours of exposure, mortality was scored with the aid of a magnifying glass.
All test compounds and solvents were >99% purity, and were purchased from Sigma-Aldrich Chemical (Milwaukee, Wis.). See Table 1 for a listing of the test compounds and their structures. Insecticide stock solutions were prepared at a standard concentration of 100 μg/μl in analytical grade acetone. For liquid insecticidal compounds, density in mg/μl was used to calculate weight on a per-volume basis. Stock solutions were held at −20° C. in sealed amber vials. In bioassay jars, filter paper tents were treated with stock volumes ranging from 2 to 20 μl, depending on the inherent toxicity of the test compound. These volumes of insecticide stock provided test concentrations of 200 to 2000 μg insecticide per replicate jar. A range of 4-5 concentrations plus a control were tested for each insecticide, and each range was repeated five times over at least three days. Controls received a volume of acetone identical to the highest insecticide volume that was tested (i.e., 10 μl for menthofuran; 20 μl for all other insecticides). Between uses, bioassay jars and lids were washed in a dishwasher, then baked 12-16 hr at 90° C. in a drying oven.
Probit and regression analyses were performed using the PROC PROBIT and PROC REG procedures, respectively. […] If control mortality ever exceeded 10% in a given replicate, that replicate was discarded.
Four Drosophila strains were used, all obtained from the Bloomington Drosophila Stock Center (Indiana University; Bloomington, Ind.). The Canton-S strain was used as the insecticide-susceptible standard. The Hikone-R strain is metabolically-resistant with elevated cytochrome P450 levels (Waters et al., 1984; Sundseth et al., 1989; Le Goff et al., 2003; Festucci-Buselli et al., 2005). Hikone-R is resistant to a number of insecticides, including malathion, DDT and neonicotinoids (Sundseth et al., 1989; Daborn et al., 2001). Two resistant neurological-mutant strains were also tested. […] Flies were reared in 100-ml vials capped with acetate plugs (Fisher Scientific; Suwanee, Ga.) on a commercial diet (JAZZ-MIX; Fisher Scientific). Flies were reared on a 12:12 photocycle at 24° C. and 60% relative humidity. Mixed-sex adults, less than 1-wk old, were used in bioassays.

[2] = test system: insecticide-susceptible Canton-S strain of Drosophila; details: for Slope ± Std. Error (probit mortality line): Table 3, Canton-S, 24 hr
Experimental: (§1) All experimental materials were purchased from Sigma-Aldrich-Fluka (Milwaukee, Wis.) and were of 99% purity or greater. […] All volatile insecticide stocks were prepared at 100 μg/μl in analytical grade acetone. Rather than weigh the highly volatile liquid insecticides (i.e., all compounds except benzothiophene), weight was determined based on the density-volume relationship of each compound. Four serial dilutions were prepared and tested for each insecticide as described previously (Scharf et al., 2006). The insecticide synergists PBO (piperonyl butoxide) and DEF (SSS-tributyl-phosphoro-trithioate) were obtained from Fluka Chemical Co. (Basel, Switzerland) and Mobay Chemical Co. (Kansas City, Mo.). Both synergists were >95% purity. Synergist stocks were prepared at 100 μg/ml in analytical grade acetone.
(§2) Volatility bioassays were conducted exactly as described in a previous report (Scharf et al., 2006). Briefly, bioassays took place in 0.5-l glass jars with metal lids. Mixed-sex flies were isolated from lab colonies and placed in 4-ml dram vials in groups of ten, along with a dried piece of laboratory diet. The dram vials were capped with open-top septum caps that were covered with fine mesh (held in place by non-toxic glue). For bioassays, the assembled dram vials were placed into the 0.5-l jars along with a folded filter paper “tent” (Whatman #1; Vineland, N.J.). The filter paper was treated with either an insecticide dilution or acetone, the jar was sealed with the metal lid, and the bioassay proceeded for 24-hr at room temperature. Mortality was scored based on a complete lack of movement by the flies. Four concentrations plus an acetone control were tested for all insecticides. Between five and ten replicates were performed for each concentration range on each strain-insecticide combination. Synergist bioassays were performed with a slight modification. Synergist stocks were applied to dram vials at 100 μl per vial to provide assay concentrations of 10 μg per vial. […] After treatment, vials were held at an angle in a fume hood and rotated ¼-turn each minute until the acetone evaporated. Flies and diet were added as above and held for 1-hr. Assays were initiated, run, and scored as above.
(§3) Probit analysis was performed using PROC PROBIT in the SAS software package (SAS Institute; Cary, N.C.). If control mortality ever exceeded 10% in a given replicate, that replicate was discarded. Toxicity and synergist ratios at LC50 were compared statistically using the calculation described by Robertson and Preisler (1992). Using this procedure, ratios with 95% confidence intervals were calculated using a spreadsheet-based program. With this calculation, if confidence intervals include 1.0 then ratios are considered non-significant (p>0.05; Robertson and Preisler, 1992).

[3] = test system: metabolically resistant Hikone-R strain of Drosophila; details: Table 3, Hikone-R, 24 hr
Experimental: as §1, §2, §3

[4] = Table 2, data taken from Scharf et al. (2006)

Substance	Slope ± Std. Error (best-fit probit mortality line) [1]	Slope ± Std. Error (probit mortality line) [1, 4]	Slope ± Std. Error (probit mortality line) ([1]; Table 3, no synergist)	Slope ± Std. Error (probit mortality line) ([2]; +DEF 10 μg per bioassay vial)	Slope ± Std. Error (probit mortality line) ([2]; +PBO 10 μg per bioassay vial)	Slope ± Std. Error (probit mortality line) ([3]; +DEF 10 μg per bioassay vial)	Slope ± Std. Error (probit mortality line) ([3]; +PBO 10 μg per bioassay vial)	LC50 (95% CL) ([1]; in vivo)	DEF synergism ratio (LC50 with synergist÷LC50 without) ([2]; esterase inhibitor DEF, reduction in toxicity, strain not given, fits Canton-S of Table 3) [fold]
methyl formate	3.27 ± 0.95	3.27 ± 0.95	3.27 ± 0.95	3.98 ± 1.52	49.50	1.91 ± 0.60	51.10	–	–
ethyl formate	5.18 ± 1.07	5.18 ± 1.07	5.18 ± 1.07	1.73 ± 1.35	4.74 ± 1.44	14.17 ± 1.80	5.17 ± 1.28	1656.0 (1486.0 − 1917.0) μg/jar	> 12
